Laboratory results: ChEMBL document CHEMBL1140501, “Validation of an automated procedure for the prediction of relative free energies of binding on a set of aldose reductase inhibitors” (Bioorg Med Chem, 2007)
pIC50: −log10 of the molar value.

Molecular target: Aldo-keto reductase family 1 member B1 (Homo sapiens, UniProt P15121)
Assay: Inhibition of aldose reductase

Row | SMILES | pIC50
1 | O=C(O)Cc1nn(Cc2nc3ccc(C(F)(F)F)cc3s2)c(=O)c2ccccc12 | 8.51
2 | O=C(O)Cc1c(Cl)cccc1Cl | 5.36
3 | Cc1ccccc1CC(=O)Nc1cc(C)c(S(=O)(=O)NCC(=O)O)c(C)c1 | 6.97
4 | O=C1C[C@@]2(C(=O)N1)C(=O)N(Cc1ccc(Br)cc1F)C(=O)c1cccn12 | 7.82
5 | O=C1C[C@]2(C(=O)N1)C(=O)N(Cc1ccc(Br)cc1F)C(=O)c1cccn12 | 6.72
6 | O=C(O)Cc1ccccc1 [PHENYLACETIC ACID] | 4.02

Now from value to compound:

Row | pIC50 | SMILES
7 | 6.75 | O=C(O)COc1ccccc1C(=O)NCc1ccc(Br)cc1F
8 | 7.52 | O=C(O)COc1cc(F)ccc1C(=S)NCc1ccc(Br)cc1F
9 | 7.25 | O=C(O)Cc1nn(Cc2ccc(Br)cc2F)c(=O)c2ccccc12 [PONALRESTAT]
10 | 7.36 | O=C(O)Cn1c(=O)n(Cc2ccc(Br)cc2F)c(=O)c2ccc(Cl)cc21 [ZENARESTAT]
